Three compounds from patent US10501516B2, “Peptide compound” (TAKEDA PHARMACEUTICAL COMPANY LIMITED, priority 2016, dated 2019) can be followed below.

Square brackets hold non-standard residues; d marks the D form. Side chains are listed from the residue outwards. Peptide text beside a SMILES is read from it. * marks the point of attachment. Phe(2-F) = N[C@@H](Cc1ccccc1F)C(=O)O; NMeY = CN[C@@H](Cc1ccc(O)cc1)C(=O)O; Palmitoyl = CCCCCCCCCCCCCCCC(=O)*; αMeF = C[C@](N)(Cc1ccccc1)C(=O)O; Iva = CC[C@](C)(N)C(=O)O; Aib = CC(C)(N)C(=O)O

The subject of experiment [1] is male C57BL/6J mouse. The experiment is described as follows: Evaluation of feeding suppressive action in mice. The format is in vivo. Particulars: 30 nmol/kg s.c. once a day for 3 days; 3-days cumulative food consumption vs solvent control. In a few lines:
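Male C57BL/6J mice, 8-9 weeks, ad libitum fed, given compound (30 or 100 nmol/2 mL in 10% DMSO saline) s.c. at 2 mL/kg once daily for 3 days. Cumulative 3-day food consumption measured by weighing; suppression rate (%) calculated relative to vehicle controls.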

Experiment [2] deals with T1, human NPY2R (Homo sapiens, UniProt P49146).
T1 construct: expressed in transfected cells; host or cells: CHO-K1 Cre-luc reporter cells (pAKKO1114/hNPY2R#481 No. 88 cells)
T1 sequence (P49146 1-381): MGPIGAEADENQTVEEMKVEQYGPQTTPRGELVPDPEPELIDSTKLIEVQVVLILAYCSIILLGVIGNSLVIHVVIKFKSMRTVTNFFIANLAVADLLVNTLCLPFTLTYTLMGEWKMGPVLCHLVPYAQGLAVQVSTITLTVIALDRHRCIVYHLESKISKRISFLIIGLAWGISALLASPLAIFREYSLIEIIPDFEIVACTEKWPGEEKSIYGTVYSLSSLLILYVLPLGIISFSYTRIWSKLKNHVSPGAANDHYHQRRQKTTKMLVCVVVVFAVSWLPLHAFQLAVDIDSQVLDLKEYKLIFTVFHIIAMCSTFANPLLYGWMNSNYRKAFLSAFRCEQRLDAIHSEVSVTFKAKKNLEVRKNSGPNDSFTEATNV
The experiment is described as follows: Reporter assay of human NPY2R gene (agonist activity, decrease in intracellular cAMP as index). The format is cell-based. The settings on record: Cre-luc reporter, hNPY2R CHO-K1 cells, forskolin 1.2 μM, 4 hours; read-out: Agonist activity (EC50) hY2R. An excerpt: (§1) Evaluation of Agonist Activity Against Human NPY2R, Human GIPR, and Human GLP-1R Using Change in Intracellular cAMP Concentration as Index
The human NPY2R gene having a sequence identical to the sequence of GenBank Accession No. AC104407 was cloned into pAKKO1114 vector to prepare hNPY2R/pAKKO1114. Next, pGL4.29 (Promega) was introduced to CHO-K1 cells, which were then screened with hygromycin to construct Cre-luc reporter cells. These cells were cotransfected with hNPY2R/pAKKO1114 and pcDNA3.1 (Life Technologies Corp.), and the cells were screened with geneticin. Next, a cell line induced to express luciferase, i.e., pAKKO1114/hNPY2R#481 No. 88 cells, were selected from the obtained transformants by the addition of human PYY (3-36).
The pAKKO1114/hNPY2R#481 No. 88 cells were inoculated at a cell density of 25 μL/well (5,000 cells/well) to a 384-well white plate (Corning, 3570), and cultured overnight in Ham F12 medium containing 10% fetal bovine serum, 100 U/mL penicillin and 100 μg/mL streptomycin in a CO2 incubator of 37° C. On the next day, the medium was removed, and an assay medium (Ham F12 medium containing 0.1% BSA, 100 U/mL penicillin and 100 μg/mL streptomycin) containing forskolin (final concentration: 1.2 μM) was added at a concentration of 25 μL/well to the cells. Next, an assay medium containing a test compound was added at a concentration of 5 μL/well to the cells, and the resultant cells were incubated for 4 hours in a CO2 incubator of 37° C. to give the final concentration of 1 μM. SteadyGlo (Promega) was added thereto at a concentration of 30 μL/well, and the mixture was left standing for 20 minutes with light shielded. The luciferase activity was measured using a plate reader Envision (PerkinElmer). The luciferase activity from the addition of DMSO was defined as 100%, and the luciferase activity from the addition of 1 μM human PYY(3-36) instead of the test compound was defined as 0%. The NPY2R agonist activity was calculated with a decrease in intracellular cAMP concentration as an index.

For experiment [3], the target named is T2, human GIPR (Homo sapiens, UniProt P48546).
T2 construct: expressed in transfected cells; host or cells: CHO-K1 Cre-luc reporter cells (hGIPR/CHO-K1, also called hGIPR/CRE-LUC/CHO-K1)
T2 sequence (P48546 22-466): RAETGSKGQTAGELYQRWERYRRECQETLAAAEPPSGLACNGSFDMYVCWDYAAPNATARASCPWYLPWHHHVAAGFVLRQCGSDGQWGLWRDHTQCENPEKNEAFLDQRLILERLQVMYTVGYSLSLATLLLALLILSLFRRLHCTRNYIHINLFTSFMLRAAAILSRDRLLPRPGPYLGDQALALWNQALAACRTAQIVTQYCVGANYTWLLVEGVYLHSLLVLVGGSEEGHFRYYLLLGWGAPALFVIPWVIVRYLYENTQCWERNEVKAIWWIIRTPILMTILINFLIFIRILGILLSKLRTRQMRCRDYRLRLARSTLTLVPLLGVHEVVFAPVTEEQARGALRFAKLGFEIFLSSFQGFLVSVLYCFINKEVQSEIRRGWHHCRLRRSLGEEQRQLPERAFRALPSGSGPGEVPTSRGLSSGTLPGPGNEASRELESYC
The experiment is described as follows: Reporter assay of human GIPR gene (agonist activity, intracellular cAMP as index). The format is cell-based. The settings on record: Cre-luc reporter, hGIPR/CHO-K1 cells, 4 hours.

Experiment [4] deals with T3, human GLP-1R (Homo sapiens, UniProt P43220).
T3 construct: expressed in transfected cells; host or cells: CHO-K1 Cre-luc reporter cells (hGLP-1R/Crel cells)
T3 sequence (P43220 24-463): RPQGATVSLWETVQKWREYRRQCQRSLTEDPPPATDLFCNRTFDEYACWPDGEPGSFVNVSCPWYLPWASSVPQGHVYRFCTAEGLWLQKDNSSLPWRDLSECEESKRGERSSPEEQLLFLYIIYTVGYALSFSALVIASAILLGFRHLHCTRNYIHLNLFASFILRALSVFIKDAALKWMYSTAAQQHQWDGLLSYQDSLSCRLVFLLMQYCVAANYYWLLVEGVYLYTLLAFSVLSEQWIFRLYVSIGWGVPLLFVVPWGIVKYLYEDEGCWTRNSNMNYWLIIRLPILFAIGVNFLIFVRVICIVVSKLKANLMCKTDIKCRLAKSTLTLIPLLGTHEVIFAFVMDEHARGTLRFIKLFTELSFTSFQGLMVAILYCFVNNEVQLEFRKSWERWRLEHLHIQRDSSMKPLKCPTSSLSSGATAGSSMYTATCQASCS
The experiment is described as follows: Reporter assay of human GLP-1R gene (agonist activity, intracellular cAMP as index). Format: cell-based. The settings on record: Cre-luc reporter, hGLP-1R/Crel cells (CHO-K1), 4 hours.
Source text: as §1
The human GLP-1R gene having a sequence identical to the sequence of GenBank Accession No. NM_002062 was cloned into pIRESneo3 vector (Clontech Laboratories, Inc.) to prepare hGLP-1R/pIRESneo3. This vector was introduced to the Cre-luc reporter cells obtained in (1) to obtain transformants. Next, a cell line induced to express luciferase, i.e., hGLP-1R/Crel cells, were selected from the obtained transformants by the addition of human GLP-1(7-37) peptide.
The hGIPR/CRE-LUC/CHO-K1 cells or the hGLP-1R/Crel cells were inoculated at a cell density of 25 μL/well (5,000 cells/well) to a 384-well white plate (Corning, 3570), and cultured overnight in Ham F12 medium containing 10% fetal bovine serum, 100 U/mL penicillin and 100 μg/mL streptomycin in a CO2 incubator of 37° C. On the next day, a medium containing a test compound was added at a concentration of 5 μL/well to the cells, and the resultant cells were incubated for 4 hours in a CO2 incubator of 37° C. to give the final concentration of 1 μM. SteadyGlo (Promega) was added thereto at a concentration of 30 μL/well, and the mixture was shaken with light shielded. After 30 minutes, the luciferase activity was measured using a plate reader Envision (PerkinElmer). For the GIPR agonist activity, the luciferase activity in the presence of 10 μM GIP was defined as 100%, and the luciferase activity from the addition of DMSO instead of the test compound was defined as 0%. The GIPR agonist activity was calculated with a rise in intracellular cAMP concentration as an index.
For the GLP-1R agonist activity, assay similar to above was conducted using the hGLP-1R/Crel cells. The luciferase activity in the presence of 10 μM GLP-1 was defined as 100%, and the luciferase activity from the addition of DMSO instead of the test compound was defined as 0%. The GLP-1R agonist activity was calculated with a rise in intracellular cAMP concentration as an index.

With `CCCCCCCCCCCCCCCC(=O)NCC(=O)NCC(=O)NCC(=O)NCC(=O)NCCCC[C@H](NC(=O)[C@H](CC(=O)O)NC(=O)[C@H](CO)NC(=O)[C@@H](NC(=O)[C@](C)(Cc1ccccc1)NC(=O)[C@@H](NC(=O)CNC(=O)[C@H](CCC(=O)O)NC(=O)C(C)(C)NC(=O)[C@H](Cc1ccc(O)cc1)NC)[C@@H](C)O)[C@@H](C)O)C(=O)N[C@@H](C)C(=O)N[C@H](C(=O)NC(C)(C)C(=O)N[C@@H](CC(C)C)C(=O)N[C@@H](CC(=O)O)C(=O)N[C@@H](CCCCN)C(=O)N[C@@H](CCC(N)=O)C(=O)N[C@@H](CCCNC(=N)N)C(=O)N[C@@H](CCC(N)=O)C(=O)N[C@@](C)(CC)C(=O)N[C@@H](CCC(=O)O)C(=O)N[C@@H](Cc1ccccc1)C(=O)N[C@H](C(=O)N[C@@H](CCCNC(=N)N)C(=O)N[C@@H](Cc1c[nH]cn1)C(=O)N[C@@H](CC(C)C)C(=O)N[C@@H](CC(C)C)C(=O)N[C@@H](CC(N)=O)C(=O)N[C@@H](CCCCN)C(=O)NC(C)(C)C(=O)N[C@H](C(=O)N[C@@H](CCCNC(=N)N)C(=O)N[C@@H](CCC(N)=O)C(=O)N[C@@H](CCCNC(=N)N)C(=O)N[C@@H](Cc1ccc(O)cc1)C(N)=O)[C@@H](C)O)C(C)C)[C@@H](C)CC` [Example 13] (H-[NMeY][Aib]EGT[αMeF]TSDK([Gly-Gly-Gly-Gly-Palmitoyl])AI[Aib]LDKQRQ[Iva]EFVRHLLNK[Aib]TRQRY-NH2), the “Rate of feeding suppression (%)” value in experiment [1] is −41.0%. The figures for the concentration giving a half-maximal response (EC50) in experiment [2] and in experiment [3] were 0.1 nM and 0.074 nM, respectively.
For the compound `CCCCCCCCCCCCCCCC(=O)NCC(=O)NCC(=O)NCC(=O)NCC(=O)NCCCC[C@H](NC(=O)[C@H](CC(=O)O)NC(=O)[C@H](CO)NC(=O)[C@@H](NC(=O)[C@](C)(Cc1ccccc1)NC(=O)[C@@H](NC(=O)CNC(=O)[C@H](CCC(=O)O)NC(=O)C(C)(C)NC(=O)[C@H](Cc1ccc(O)cc1)NC)[C@@H](C)O)[C@@H](C)O)C(=O)NC(C)(C)C(=O)N[C@H](C(=O)NC(C)(C)C(=O)N[C@@H](CC(C)C)C(=O)N[C@@H](CCC(=O)O)C(=O)N[C@@H](CCCCN)C(=O)N[C@@H](CCC(N)=O)C(=O)N[C@@H](CCCNC(=N)N)C(=O)N[C@@H](CCC(N)=O)C(=O)N[C@@](C)(CC)C(=O)N[C@@H](CCC(=O)O)C(=O)N[C@@H](Cc1ccccc1)C(=O)N[C@H](C(=O)N[C@@H](CCCNC(=N)N)C(=O)N[C@@H](Cc1c[nH]cn1)C(=O)N[C@@H](CC(C)C)C(=O)N[C@@H](CC(C)C)C(=O)N[C@@H](CC(N)=O)C(=O)N[C@@H](CCCCN)C(=O)NC(C)(C)C(=O)N[C@H](C(=O)N[C@@H](CCCNC(=N)N)C(=O)N[C@@H](CCC(N)=O)C(=O)N[C@@H](CCCNC(=N)N)C(=O)N[C@@H](Cc1ccc(O)cc1)C(N)=O)[C@@H](C)O)C(C)C)[C@@H](C)CC` [Example 33] (H-[NMeY][Aib]EGT[αMeF]TSDK([Gly-Gly-Gly-Gly-Palmitoyl])[Aib]I[Aib]LEKQRQ[Iva]EFVRHLLNK[Aib]TRQRY-NH2), the “Rate of feeding suppression (%)” value in experiment [1] is −58.4%. The same compound had an EC50 in experiment [4] of 0.13 nM.
With `CCCCCCCCCCCCCCCC(=O)NCC(=O)NCC(=O)NCC(=O)NCC(=O)NCCCC[C@H](NC(=O)[C@H](CC(=O)O)NC(=O)[C@H](CO)NC(=O)[C@@H](NC(=O)[C@](C)(Cc1ccccc1)NC(=O)[C@@H](NC(=O)CNC(=O)[C@H](CCC(=O)O)NC(=O)C(C)(C)NC(=O)[C@H](Cc1ccc(O)cc1)NC)[C@@H](C)O)[C@@H](C)O)C(=O)NC(C)(C)C(=O)N[C@H](C(=O)NC(C)(C)C(=O)N[C@@H](CC(C)C)C(=O)N[C@@H](CC(=O)O)C(=O)N[C@@H](CCCCN)C(=O)N[C@@H](CCC(N)=O)C(=O)N[C@@H](CCCNC(=N)N)C(=O)N[C@@H](CCC(N)=O)C(=O)N[C@@](C)(CC)C(=O)N[C@@H](CCC(=O)O)C(=O)N[C@@H](Cc1ccccc1)C(=O)N[C@H](C(=O)N[C@@H](CCCNC(=N)N)C(=O)N[C@@H](Cc1c[nH]cn1)C(=O)N[C@@H](CC(C)C)C(=O)N[C@@H](CC(C)C)C(=O)N[C@@H](CC(N)=O)C(=O)N[C@@H](CCCCN)C(=O)NC(C)(C)C(=O)N[C@H](C(=O)N[C@@H](CCCNC(=N)N)C(=O)N[C@@H](CCC(N)=O)C(=O)N[C@@H](CCCNC(=N)N)C(=O)N[C@@H](Cc1ccccc1F)C(N)=O)[C@@H](C)O)C(C)C)[C@@H](C)CC` [Example 5] (H-[NMeY][Aib]EGT[αMeF]TSDK([Gly-Gly-Gly-Gly-Palmitoyl])[Aib]I[Aib]LDKQRQ[Iva]EFVRHLLNK[Aib]TRQR[Phe(2-F)]-NH2), the EC50 in experiment [4] amounted to 0.13 nM.
